According to PubChem BioAssay (NCI):
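Exposure lasted 48 hours, with cells grown in 96-well plates and compounds tested at five concentrations. Abbreviation: GI50, concentration required for 50% inhibition of growth. The concentration for full growth arrest is given as TGI.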 Square brackets hold non-standard residues; d marks the D form. Peptide text beside a SMILES is read from it. * marks the point of attachment. ξ: configuration not given here. Boc = CC(C)(C)OC(=O)*; ξV = CC(C)C(N)C(=O)O; OBn = c1ccc(CO*)cc1

Legend:
Test in all cases: inhibition of tumour cell growth, NCI panel, 48 h
[1] = test system: HCC-2998 colon
[2] = test system: OVCAR-5 ovarian
[3] = test system: BT-549 breast
[4] = test system: COLO 205 colon
[5] = test system: A498 renal
[6] = test system: SK-MEL-5 melanoma
[7] = test system: HOP-92 NSCLC
[8] = test system: SF-539 CNS
[9] = test system: ACHN renal
[10] = test system: SF-268 CNS
[11] = test system: HT29 colon
[12] = test system: CCRF-CEM leukemia
[13] = test system: UACC-257 melanoma
[14] = test system: MDA-MB-435
[15] = test system: UACC-62 melanoma
[16] = test system: NCI-H522 lung
[17] = test system: DU-145 prostate
[18] = test system: RXF 393 renal
[19] = test system: A549 NSCLC
[20] = test system: HOP-62 NSCLC
[21] = test system: MOLT-4 leukemia
[22] = test system: OVCAR-8 ovarian
[23] = test system: U251 CNS
[24] = test system: SNB-19 CNS
[25] = test system: SW-620 colon
[26] = test system: NCI/ADR-RES ovarian
[27] = test system: MCF7 breast
[28] = test system: OVCAR-3 ovarian
[29] = test system: NCI-H460 lung
[30] = test system: OVCAR-4 ovarian
[31] = test system: EKVX NSCLC
[32] = test system: TK-10 renal
[33] = test system: 786-0 renal
[34] = test system: MDA-MB-231 breast
[35] = test system: NCI-H23 lung
[36] = test system: HCT-15 colon
[37] = test system: PC-3 prostate
[38] = test system: SF-295 CNS
[39] = test system: SK-MEL-28 melanoma
[40] = test system: SR leukemia
[41] = test system: UO-31 renal
[42] = test system: M14 melanoma
[43] = test system: LOX IMVI melanoma
[44] = test system: SN12C renal
[45] = test system: MALME-3M melanoma
[46] = test system: SK-OV-3 ovarian
[47] = test system: SNB-75 CNS
[48] = test system: IGROV1 ovarian
[49] = test system: K-562 leukemia
[50] = test system: RPMI-8226 leukemia
[51] = test system: HL-60(TB) leukemia
[52] = test system: CAKI-1 renal
[53] = test system: KM12 colon
[54] = test system: HCT-116 colon
[55] = test system: T-47D breast
[56] = test system: NCI-H226 lung
[57] = test system: SK-MEL-2 melanoma

For `Nc1cc(NN=C(c2ccc(O)cc2)c2ccc(O)cc2)c([N+](=O)[O-])cc1[N+](=O)[O-]`, the GI50 [1] was 1.57 µM, the TGI [1] was 3.51 µM and the GI50 [2] was 2.85 µM. It also gave a TGI [2] of 8.44 µM, a GI50 [3] of 2.46 µM and a TGI [3] of 6.78 µM. For the same compound, the GI50 [4] was 1.85 µM, the TGI [4] was 4.49 µM and the GI50 [5] was 1.69 µM. For the same compound, the TGI [5] was 3.55 µM, the GI50 [6] was 1.52 µM and the TGI [6] was 2.85 µM. It also gave a GI50 [7] of 2.18 µM, a TGI [7] of 8.2 µM and a GI50 [8] of 1.7 µM. The TGI [8] was 3.85 µM, the GI50 [9] was 1.86 µM and the TGI [9] was 5.55 µM. The GI50 [10] was 1.73 µM, the TGI [10] was 3.45 µM and the GI50 [11] was 2.63 µM. For the same compound, the TGI [11] was 8.19 µM, the GI50 [12] was 2.54 µM and the TGI [12] was 6.13 µM. For the same compound, the GI50 [13] was 4.3 µM, the TGI [13] was 17.1 µM and the GI50 [14] was 1.7 µM. It also gave a TGI [14] of 3.44 µM, a GI50 [15] of 1.66 µM and a TGI [15] of 3.01 µM. The GI50 [16] was 2.46 µM, the TGI [16] was 6.51 µM and the GI50 [17] was 1.64 µM. It also gave a TGI [17] of 2.99 µM, a GI50 [18] of 1.59 µM and a TGI [18] of 3.15 µM. For the same compound, the GI50 [19] was 2.29 µM, the TGI [19] was 5.69 µM and the GI50 [20] was 2.13 µM. It also gave a TGI [20] of 3.98 µM, a GI50 [21] of 2.76 µM and a TGI [21] of 7.69 µM. For the same compound, the GI50 [22] was 3.12 µM, the TGI [22] was 15.1 µM and the GI50 [23] was 1.93 µM. It also gave a TGI [23] of 4.15 µM, a GI50 [24] of 2.32 µM and a TGI [24] of 7.12 µM. The GI50 [25] was 1.58 µM, the TGI [25] was 2.93 µM and the GI50 [26] was 3.49 µM. The TGI [26] was 11.6 µM, the GI50 [27] was 1.56 µM and the TGI [27] was 3.28 µM. It also gave a GI50 [28] of 1.81 µM, a TGI [28] of 4.14 µM and a GI50 [29] of 1.79 µM. It also gave a TGI [29] of 3.47 µM, a GI50 [30] of 2.54 µM and a TGI [30] of 7.47 µM. For the same compound, the GI50 [31] was 2.42 µM, the TGI [31] was 7.45 µM and the GI50 [32] was 2.22 µM. It also gave a TGI [32] of 6.98 µM, a GI50 [33] of 1.83 µM and a TGI [33] of 3.43 µM. The GI50 [34] was 2.22 µM, the TGI [34] was 5.38 µM and the GI50 [35] was 2.31 µM. It also gave a TGI [35] of 6.07 µM, a GI50 [36] of 1.78 µM and a TGI [36] of 4.13 µM. The GI50 [37] was 3.31 µM, the TGI [37] was 12.4 µM and the GI50 [38] was 1.4 µM. It also gave a TGI [38] of 2.91 µM, a GI50 [39] of 1.6 µM and a TGI [39] of 3.56 µM. It also gave a GI50 [40] of 2.03 µM, a TGI [40] of 7.48 µM and a GI50 [41] of 1.81 µM. The TGI [41] was 4.87 µM, the GI50 [42] was 1.71 µM and the TGI [42] was 3.49 µM. It also gave a GI50 [43] of 1.65 µM, a TGI [43] of 3.1 µM and a GI50 [44] of 1.58 µM. It also gave a TGI [44] of 3.4 µM, a GI50 [45] of 2.45 µM and a TGI [45] of 5.96 µM. The GI50 [46] was 2.35 µM, the TGI [46] was 6.4 µM and the GI50 [47] was 1.45 µM. For the same compound, the TGI [47] was 3.92 µM, the GI50 [48] was 2.28 µM and the TGI [48] was 5.38 µM. It also gave a GI50 [49] of 3.62 µM, a TGI [49] of 31.7 µM and a GI50 [50] of 2.15 µM. For the same compound, the TGI [50] was 6.46 µM, the GI50 [51] was 3.04 µM and the TGI [51] was 14 µM. For the same compound, the GI50 [52] was 1.88 µM, the TGI [52] was 5.24 µM and the GI50 [53] was 1.52 µM. For the same compound, the TGI [53] was 2.85 µM, the GI50 [54] was 2 µM and the TGI [54] was 4.23 µM.
Work on `Cc1ccc(-n2c3nc(=O)[nH]c(=O)c-3cc3cc([N+](=O)[O-])ccc32)cc1` yielded a GI50 [1] of 14.6 µM, a TGI [1] of 28.6 µM and a GI50 [2] of 21.1 µM. The TGI [2] was 50.2 µM, the GI50 [3] was 6.49 µM and the TGI [3] was 27.8 µM. The GI50 [4] was 15.6 µM, the TGI [4] was 41.6 µM and the GI50 [5] was 20.5 µM. It also gave a TGI [5] of 45.2 µM, a GI50 [6] of 16 µM and a TGI [6] of 36.8 µM. It also gave a GI50 [8] of 13.9 µM, a TGI [8] of 40.8 µM and a GI50 [9] of 38.1 µM. The TGI [9] was greater than 100 µM, the GI50 [10] was 17.3 µM and the TGI [10] was 54.8 µM. The GI50 [11] was 12 µM, the TGI [11] was 37.2 µM and the GI50 [12] was 4.67 µM. The TGI [12] was greater than 100 µM, the GI50 [13] was 26.7 µM and the TGI [13] was 70.9 µM. For the same compound, the GI50 [14] was 4.01 µM, the TGI [14] was 17.7 µM and the GI50 [15] was 12.1 µM. It also gave a TGI [15] of 29.8 µM, a GI50 [16] of 33.2 µM and a TGI [16] of 77.5 µM. The GI50 [17] was 22.9 µM, the TGI [17] was 55.1 µM and the GI50 [18] was 49.9 µM. It also gave a TGI [18] greater than 100 µM, a GI50 [19] of 44.6 µM and a TGI [19] greater than 100 µM. For the same compound, the GI50 [20] was 2.57 µM, the TGI [20] was 11.8 µM and the GI50 [21] was 6.61 µM. The TGI [21] was greater than 100 µM, the GI50 [55] was 14.3 µM and the TGI [55] was 36 µM. The GI50 [22] was 38.6 µM, the TGI [22] was greater than 100 µM and the GI50 [23] was 5.14 µM. It also gave a TGI [23] greater than 100 µM, a GI50 [24] of 17.3 µM and a TGI [24] of 74 µM. It also gave a GI50 [25] of 4.71 µM, a TGI [25] greater than 100 µM and a GI50 [26] of 10.7 µM. For the same compound, the TGI [26] was 34.4 µM, the GI50 [28] was 2.18 µM and the TGI [28] was 4.79 µM. For the same compound, the GI50 [29] was 17.1 µM, the TGI [29] was greater than 100 µM and the GI50 [30] was 24.1 µM. The TGI [30] was 98.8 µM, the GI50 [31] was 33.1 µM and the TGI [31] was 67 µM. For the same compound, the GI50 [32] was 29.3 µM, the TGI [32] was 64.5 µM and the GI50 [33] was 10.3 µM. The TGI [33] was 29.5 µM, the GI50 [34] was 17.8 µM and the TGI [34] was 44.2 µM. For the same compound, the GI50 [56] was 24.6 µM, the TGI [56] was 86 µM and the GI50 [57] was 44.2 µM. The TGI [57] was greater than 100 µM, the GI50 [35] was 13.4 µM and the TGI [35] was 29.6 µM. It also gave a GI50 [36] of 25.5 µM, a TGI [36] greater than 100 µM and a GI50 [37] of 12.2 µM. It also gave a TGI [37] of 36.6 µM, a GI50 [38] of 15.9 µM and a TGI [38] of 37.3 µM. The GI50 [39] was 15.7 µM, the TGI [39] was 42.2 µM and the GI50 [41] was 23 µM. For the same compound, the TGI [41] was 68.2 µM, the GI50 [42] was 17.3 µM and the TGI [42] was 36.6 µM. It also gave a GI50 [43] of 4.77 µM, a TGI [43] of 21.5 µM and a GI50 [44] of 20.6 µM. It also gave a TGI [44] of 56.5 µM, a GI50 [46] of 37.1 µM and a TGI [46] greater than 100 µM. The GI50 [47] was 16.6 µM, the TGI [47] was 59.4 µM and the GI50 [49] was 33.4 µM. The TGI [49] was greater than 100 µM, the GI50 [50] was 3.95 µM and the TGI [50] was 21.3 µM. It also gave a GI50 [51] of 3.98 µM, a TGI [51] greater than 100 µM and a GI50 [52] of 10.4 µM. The TGI [52] was 39.2 µM, the GI50 [53] was 3.79 µM and the TGI [53] was 16.1 µM. The GI50 [54] was 5.26 µM and the TGI [54] was 21 µM.
`CC(C)C(NC(=O)CNC(=O)OC(C)(C)C)C(=O)OCc1ccccc1` (stereo not drawn) (Boc-Gly-[ξV]-OBn) gave a GI50 [49] of 30.4 µg/mL and a GI50 [51] of 86.5 µg/mL.
